The values below come from patent US4749559A, “Method for detecting melanin-containing matter” (United States of America, priority 1986, dated 1988).

Data set [1] relates to B16 melanoma. Description: In vitro binding of [125I]BZZ to homogenate of B16 melanoma. Also on record: species or system mouse. As to the method: (§1) A tissue homogenate rather than washed particulate material was used for the assay. The assay system (final volume 200 μ) contained Tris-HCl (pH 7.4), 80 mM; ethyleneglyco-bis-(β-aminoethyl ether) N,N',tetraacetic (EGTA), 0.8 mM and MgSO4, 10 mM; radiolabeled ligand (40,000 cpm, 60 pM) and the unlabeled ligand as required for competitive assay; and incubations were performed at 25° C. for about 60 min. When binding to striatum and to tumor were compared, binding to homogenates of both tissues was determined simultaneously. In order to determine the reproducibility of the results, ligand binding was determined in 3 replicate samples for each experimental condition. The mean of these three values was taken as a single errorless value and the mean of three (or more) of such values from independent experiments is reported. Data represent mean ± SE.

In another data set the target is T1, D-1 dopamine receptor (Mus musculus, UniProt Q61616).
T1 construct: homogenate of the caudate putamen of the Swiss Webster mouse brain; from tissue; host or cells: caudate-putamen homogenate, Swiss Webster mouse brain
T1 sequence (Q61616 whole entry): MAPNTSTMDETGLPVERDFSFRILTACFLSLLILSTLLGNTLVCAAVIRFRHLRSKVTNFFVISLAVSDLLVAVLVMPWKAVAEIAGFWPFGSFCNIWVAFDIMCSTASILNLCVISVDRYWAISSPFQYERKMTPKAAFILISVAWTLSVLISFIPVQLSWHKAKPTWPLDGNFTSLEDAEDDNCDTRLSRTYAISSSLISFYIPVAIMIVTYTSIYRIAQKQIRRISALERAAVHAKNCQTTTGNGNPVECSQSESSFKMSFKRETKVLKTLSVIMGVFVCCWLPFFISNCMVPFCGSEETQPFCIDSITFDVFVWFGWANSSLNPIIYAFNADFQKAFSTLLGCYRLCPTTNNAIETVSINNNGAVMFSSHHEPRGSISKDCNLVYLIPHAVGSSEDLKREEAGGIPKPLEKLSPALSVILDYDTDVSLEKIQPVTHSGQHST
Description: In vitro binding of [125I]BZZ to homogenate of caudate putamen (competition with unlabeled SCH23390 enantiomers). The note with it: FIG. 4A. As to the method: as §1

Data set [2] relates to B16 melanoma. Description: In vivo accumulation of intravenously administered radiolabel in B16 melanoma (gamma counting, autoradiography). Also on record: species or system mouse. As to the method: The B16 melanoma was removed from the host mouse, washed in a balanced salt solution and then cut into small fragments (approximately 2 mm cubes). A tumor fragment was then implanted subcutaneously with a trochar into either the back or hind limb of the recipient mouse (either a C57/B16 or Swiss-Webster). Tumors could be easily seen within 2 to 3 weeks after implantation of the tumor fragment.
(§2) Radiolabeled ligand was dissolved in Hank's balanced salt solution and administered via the tail vein as a bolus of 100 μl. At appropriate times, the animals were sacrificed and various organs removed. The amount of ^125 I radioactivity within a given organ was determined with a gamma counter.
(§3) After animals were killed, the brain, eyes or tumor were immediately removed and frozen on dry ice. Frozen, 16 μthick sections were cut in a cryostat at -16° C., thaw-mounted onto gelatin-coated slides and stored overnight under vacuum at 4° C. The tissue sections were preincubated for 15 min in 50 mM Tris-HCl buffer, pH 7.4, for 15 min and then incubated for 20 min in a solution containing 50 mM Tris-HCl, pH 7.4, 120 mM NaCl, 5 mM KCl, 2 mM CaCl2, 1 mM MgCl2 and 200 pM iodinated ligand (either R or S enantiomer). After incubation, the slides were washed 4 times in ice-cold 50 mM Tris-HCl buffer and dried under a stream of air. Autoradiographic images were produced by placing the slides in X-ray casettes and using them to expose [^3 H]ultra film for 15 hours following standard procedure.

Data set [3] in a line: In vivo accumulation of radiolabel in eyes of pigmented and albino mice. The arrangement: species or system mouse. As to the method:
as §2, §3

Data set [4] relates to B16 melanoma. The experiment in a line: Noninvasive imaging of [125I] with pinhole collimator and gamma camera. It is filed as in vivo, mouse. The settings on record: tumor-bearing and nontumor-bearing mice; 50 μCi intravenous; FIG. 2. As to the method:
Mice received a bolus injection of [^125 I]BZZ (50 μCi) dissolved in Hank's balanced salt solution via the tail vein. At several times, the distribution of [^125 I]was determined by imaging with a pinhole collimeter attached to a gamma camera (Raytheon Nuclear Diagnostics).

The nature of data set [5]: In vitro autoradiography of frozen section of retina. It is filed as binding, mouse. The settings on record: FIG. 3C. As to the method:
as §3
Emulsion autoradiography was performed as follows: a flexible coverslip coated with NTB-3 (Kodak) was exposed to the tissue section; when the exposure was complete in about a day (about 24 hrs) the emulsion was developed at 4° for 2 min in D-19 developer. The section was stained with hematoxylin and eosin and the coverslip was reexposed to the stained section.

The subject of a further data set is human melanoma. Description: In vitro autoradiography of frozen sections of human melanoma (lymph node). It is filed as binding. The settings on record: lymph node with pigmented metastatic melanoma; 200 pM ligand; FIG. 6 right. As to the method: as §3
The subject of data set [6] is B16 melanoma. The experiment in a line: In vitro autoradiography of frozen sections of B16 melanoma. It is filed as binding, mouse. The note with it: 200 pM ligand; FIG. 6 left. As to the method: as §3
For data set [7], the system named is caudate nucleus of the rat brain. Description: Binding of [125I]BZZ enantiomers to homogenate of caudate nucleus. The note with it: FIG. 5. As to the method:
as §1

[8] abbreviates: mouse given B16 melanoma cells intravenously 3 weeks earlier, 50 μCi, autoradiogram FIG. 1D, E.

On to `CN1CCc2cc(Cl)c(O)cc2C(c2ccccc2)C1` (centres unmarked) [2,3,4,5-tetrahydro-8-chloro-3 methyl-5-phenyl-1H-3 benzazepin-7-ol], for which the “displacement of [125I]BZZ from melanoma tissue” value in the data set with B16 melanoma [1] is listed as “effectively displaced”.

Consider `CN1CCc2cc(Cl)c(O)cc2[C@@H](c2ccccc2)C1` [R-enantiomer, reference compound], for which, on D-1 dopamine receptor (D-1 receptor in caudate nucleus, displacement of [125I]BZZ), the “affinity for R-enantiomer relative to S-enantiomer” value is 100 fold. In addition, in the data set on B16 melanoma [1] (B16 melanoma versus caudate homogenate, FIGS. 4A and B), the “concentration required to displace [125I]BZZ from melanoma binding site relative to D-1 dopamine receptor” value amounted to 400 fold. Also, the “difference between R- and S-enantiomers” value in the data set on B16 melanoma [1] (binding site in B16 melanoma, displacement of [125I]BZZ, FIG. 4B) worked out at 5.1 fold.

Consider `CN1CCc2cc([125I])c(O)cc2[C@@H](c2ccccc2)C1` [[^125 I]BZZ], for which the “amount of bound radioactivity corresponding to 100 percent” value on D-1 dopamine receptor (homogenate of caudate putamen of Swiss Webster mouse brain) was 23,379±555 cpm/mg wet wt. The “amount of bound radioactivity corresponding to 100 percent” value with B16 melanoma [1] (homogenate of B16 melanoma propagated in Swiss Webster mice, FIG. 4B) is given as 18,033±3,647 cpm/mg wet weight. In the data set with B16 melanoma [2] (albino mouse, 10 μCi intravenous, within 45 min, p<0.001), the “concentration of radiolabel within B-16 melanoma relative to nonpigmented eye” value is 19 times. Moreover, in the data set with B16 melanoma [2] (frozen section of B16 melanoma after intravenous administration, FIG. 1B, C), the “accumulation of radiolabel in tumor versus surrounding tissues (autoradiograph)” value is “much higher degree than within the surrounding tissues”. In the data set with B16 melanoma [2] (setting [8]), the “accumulation of radiolabel in foci of pigmented cells of lung (metastatic melanoma)” value is “heavy accumulation of radiolabel” and the “binding of ligand to normal lung tissue” value was “does not bind the ligand”. In addition, in data set [3] (50 μCi, 45 min, FIG. 3B), the “localization of radiolabel within the pigmented eye (autoradiography)” value is listed as “accumulated predominantly in a narrow band at the back of the pigmented eye”. Further, the “difference between amount of radiolabel accumulated in pigmented and albino eyes” value in [3] (C57B1/6 versus Swiss Webster mouse, 10 μCi intravenous, P<0.001) was found to be 79 fold. In addition, the “accumulation within the abdomen” value in the data set on B16 melanoma [4] is on record as “substantial accumulation”. Further, the “localization of radiolabel in frozen section of retina exposed to ligand in vitro” value in [5] is given as “highly concentrated within the melanin containing pigment epithelium”. The “binding to metastatic human melanoma (frozen section autoradiogram)” value with human melanoma is listed as “effectively bind”. Further, in the data set on B16 melanoma [6], the “binding to frozen sections of murine B16 melanoma” value is reported as “bound to frozen sections”.

On to `CN1CCc2cc([125I])c(O)cc2[C@H](c2ccccc2)C1` [[^125 I]-S-BZZ], for which the “binding to pigmented B16 melanoma homogenate” value with B16 melanoma [1] (compared with R-enantiomer, FIG. 5) is reported as “to the same degree as did its R-enantiomer”. For the same compound, the “binding to homogenate of caudate nucleus” value in data set [7] is on record as “failed to bind”. The “binding to metastatic human melanoma (frozen section autoradiogram)” value in the data set with human melanoma was “effectively bind”. Moreover, in the data set with B16 melanoma [6], the “binding to frozen sections of murine B16 melanoma” value is recorded as “bound to frozen sections”.
